Tests used:
Type in all cases: binding
[1] = target: T1, JAK1 (Homo sapiens, UniProt P23458); test: Kinobeads assay with immunodetection, JAK1; details: for IC50: Kinobeads assay, mixed Molt4/Ramos lysate, read-out: Inhibition values (IC50) JAK1
T1 construct: endogenous in cells; host or cells: Molt4 (ATCC CRL-1582) and Ramos (ATCC CRL-1596) cells; mixed lysate 1:2
Protocol: (§1) Determination of the Effect of the Compounds According to the Invention on Janus Kinases (JAK Family) in Kinobeads™ Assays with Immunodetection of Kinases
(§2) The compounds of the present invention as described in the previous examples were tested in a Kinobeads™ assay as described for ZAP-70 (WO-A 2007/137867). Briefly, test compounds (at various concentrations) and the affinity matrix with the immobilized aminopyrido-pyrimidine ligand 24 were added to cell lysate aliquots and allowed to bind to the proteins in the lysate sample. After the incubation time the beads with captured proteins were separated from the lysate. Bound proteins were then eluted and the presence of JAK1, JAK2, JAK3 and TYK2 was detected and quantified using specific antibodies in a dot blot procedure and the Odyssey infrared detection system. Dose response curves for individual kinases were generated and IC50 values calculated. Kinobeads™ assays for ZAP-70 (WO-A 2007/137867) and for kinase selectivity profiling (WO-A 2006/134056) have been previously described.
(§3) The affinity matrix was washed two times with 15 mL of 1×DP buffer containing 0.2% NP40 (IGEPAL® CA-630, Sigma, #13021) and then resuspended in 1×DP buffer containing 0.2% NP40 (3% beads slurry).
(§4) 5×DP buffer: 250 mM Tris-HCl pH 7.4, 25% Glycerol, 7.5 mM MgCl2, 750 mM NaCl, 5 mM Na3VO4; filter the 5×DP buffer through a 0.22 μm filter and store in aliquots at −80° C. The 5×DP buffer is diluted with H2O to 1×DP buffer containing 1 mM DTT and 25 mM NaF.
(§5) Stock solutions of test compounds were prepared in DMSO. In a 96 well plate 30 μL solution of diluted test compounds at 5 mM in DMSO were prepared. Starting with this solution a 1:3 dilution series (9 steps) was prepared. For control experiments (no test compound) a buffer containing 2% DMSO was used.
(§6) Molt4 cells (ATCC catalogue number CRL-1582) and Ramos cells (ATCC catalogue number CRL-1596) were grown in 1 L Spinner flasks (Integra Biosciences, #182101) in suspension in RPMI 1640 medium (Invitrogen, #21875-034) supplemented with 10% Fetal Bovine Serum (Invitrogen) at a density between 0.15×10^6 and 1.2×10^6 cells/mL. Cells were harvested by centrifugation, washed once with 1×PBS buffer (Invitrogen, #14190-094) and cell pellets were frozen in liquid nitrogen and subsequently stored at −80° C. Cells were homogenized in a Potter S homogenizer in lysis buffer: 50 mM Tris-HCl, 0.8% NP40, 5% glycerol, 150 mM NaCl, 1.5 mM MgCl2, 25 mM NaF, 1 mM sodium vanadate, 1 mM DTT, pH 7.5. One complete EDTA-free tablet (protease inhibitor cocktail, Roche Diagnostics, 1873580) per 25 ml, buffer was added. The material was dounced 10 times using a mechanized POTTER S, transferred to 50 mL falcon tubes, incubated for 30 minutes on ice and spun down for 10 minutes at 20,000 g at 4° C. (10,000 rpm in Sorvall SLA600, precooled). The supernatant was transferred to an ultracentrifuge (UZ)-polycarbonate tube (Beckmann, 355654) and spun for 1 hour at 100.000 g at 4° C. (33.500 rpm in Ti50.2, precooled). The supernatant was transferred again to a fresh 50 mL falcon tube, the protein concentration was determined by a Bradford assay (BioRad) and samples containing 50 mg of protein per aliquot were prepared. The samples were immediately used for experiments or frozen in liquid nitrogen and stored frozen at −80° C.
(§7) Cell lysate (approximately 50 mg protein per plate) was thawed in a water bath at room temperature and then stored on ice. To the thawed cell lysate 1×DP 0.8% NP40 buffer containing protease inhibitors (1 tablet for 25 mL buffer; EDTA-free protease inhibitor cocktail; Roche Diagnostics 1873580) was added in order to reach a final protein concentration of 10 mg/mL total protein. The diluted cell lysate was stored on ice. Mixed Molt4/Ramos lysate was prepared by combining one volume of Molt4 lysate and two volumes of Ramos lysate (ratio 1:2). […]

[2] = target: T2, JAK2 (Homo sapiens, UniProt O60674); test: Kinobeads assay with immunodetection, JAK2; details: mixed Molt4/Ramos lysate, read-out: Inhibition values (IC50) JAK2
T2 construct: endogenous in cells; host or cells: Molt4 (ATCC CRL-1582) and Ramos (ATCC CRL-1596) cells; mixed lysate 1:2
T2 sequence (O60674 whole entry): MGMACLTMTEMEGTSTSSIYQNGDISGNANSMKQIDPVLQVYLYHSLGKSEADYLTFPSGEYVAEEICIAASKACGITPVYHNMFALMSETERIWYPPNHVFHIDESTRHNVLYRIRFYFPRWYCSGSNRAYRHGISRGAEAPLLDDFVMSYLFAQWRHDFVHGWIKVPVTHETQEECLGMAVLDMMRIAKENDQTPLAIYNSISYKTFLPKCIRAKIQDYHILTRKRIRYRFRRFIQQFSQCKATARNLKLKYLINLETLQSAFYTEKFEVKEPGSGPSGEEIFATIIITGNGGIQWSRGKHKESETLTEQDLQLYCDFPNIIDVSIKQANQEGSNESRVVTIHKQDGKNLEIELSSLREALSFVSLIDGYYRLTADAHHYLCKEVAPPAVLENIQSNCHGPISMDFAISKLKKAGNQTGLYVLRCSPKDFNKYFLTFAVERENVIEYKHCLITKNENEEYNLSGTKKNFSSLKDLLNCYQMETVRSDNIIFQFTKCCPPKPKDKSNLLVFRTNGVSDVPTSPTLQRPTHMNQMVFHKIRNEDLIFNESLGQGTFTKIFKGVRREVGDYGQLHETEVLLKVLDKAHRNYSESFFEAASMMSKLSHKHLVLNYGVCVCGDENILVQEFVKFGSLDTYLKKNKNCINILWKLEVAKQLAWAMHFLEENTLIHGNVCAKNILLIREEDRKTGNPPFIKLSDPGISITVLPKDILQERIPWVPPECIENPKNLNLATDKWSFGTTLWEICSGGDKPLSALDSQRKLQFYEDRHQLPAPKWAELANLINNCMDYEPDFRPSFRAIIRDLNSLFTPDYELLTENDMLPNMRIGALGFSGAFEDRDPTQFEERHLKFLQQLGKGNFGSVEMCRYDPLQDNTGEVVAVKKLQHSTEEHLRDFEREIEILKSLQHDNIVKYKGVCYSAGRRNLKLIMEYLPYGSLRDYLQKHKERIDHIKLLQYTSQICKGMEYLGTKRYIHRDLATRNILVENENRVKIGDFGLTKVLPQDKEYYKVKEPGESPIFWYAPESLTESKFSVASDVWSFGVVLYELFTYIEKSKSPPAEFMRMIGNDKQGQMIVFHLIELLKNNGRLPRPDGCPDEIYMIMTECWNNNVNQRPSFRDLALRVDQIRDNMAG
Protocol: as §1, §2, §3, §4, §5, §6, §7

[3] = target: T3, JAK3 (Homo sapiens, UniProt P52333); test: Kinobeads assay with immunodetection, JAK3; details: for IC50: Kinobeads assay, mixed Molt4/Ramos lysate, read-out: Inhibition values (IC50) JAK3
T3 construct: endogenous in cells; host or cells: Molt4 (ATCC CRL-1582) and Ramos (ATCC CRL-1596) cells; mixed lysate 1:2
T3 sequence (P52333 1-1124): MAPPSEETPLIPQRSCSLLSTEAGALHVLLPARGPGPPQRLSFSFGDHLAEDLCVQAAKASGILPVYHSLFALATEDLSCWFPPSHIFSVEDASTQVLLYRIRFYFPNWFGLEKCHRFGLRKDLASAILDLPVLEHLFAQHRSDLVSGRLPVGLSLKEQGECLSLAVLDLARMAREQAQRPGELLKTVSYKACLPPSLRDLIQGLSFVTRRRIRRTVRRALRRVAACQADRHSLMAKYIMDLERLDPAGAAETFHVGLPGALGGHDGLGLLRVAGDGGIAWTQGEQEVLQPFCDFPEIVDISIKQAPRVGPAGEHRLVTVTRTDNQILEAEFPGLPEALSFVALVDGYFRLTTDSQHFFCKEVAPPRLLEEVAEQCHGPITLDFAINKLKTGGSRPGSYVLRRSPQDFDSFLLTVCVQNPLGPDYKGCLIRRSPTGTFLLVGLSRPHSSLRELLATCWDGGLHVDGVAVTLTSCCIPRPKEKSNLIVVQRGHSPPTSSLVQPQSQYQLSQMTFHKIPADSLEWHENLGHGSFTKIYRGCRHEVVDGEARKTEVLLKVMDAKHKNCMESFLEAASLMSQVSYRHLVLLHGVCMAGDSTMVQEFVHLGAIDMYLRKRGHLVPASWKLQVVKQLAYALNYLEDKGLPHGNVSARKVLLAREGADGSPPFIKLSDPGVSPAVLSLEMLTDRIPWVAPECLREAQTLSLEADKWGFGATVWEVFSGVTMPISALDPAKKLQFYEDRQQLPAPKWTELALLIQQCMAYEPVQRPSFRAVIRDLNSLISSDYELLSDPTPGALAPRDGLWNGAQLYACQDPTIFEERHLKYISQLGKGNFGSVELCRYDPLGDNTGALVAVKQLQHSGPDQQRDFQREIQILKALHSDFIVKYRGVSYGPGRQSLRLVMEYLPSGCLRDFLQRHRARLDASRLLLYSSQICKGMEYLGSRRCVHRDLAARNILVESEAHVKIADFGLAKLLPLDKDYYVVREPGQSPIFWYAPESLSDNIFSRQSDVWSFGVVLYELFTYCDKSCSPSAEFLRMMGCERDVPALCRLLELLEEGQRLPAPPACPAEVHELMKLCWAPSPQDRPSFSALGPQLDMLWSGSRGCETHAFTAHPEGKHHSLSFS
Protocol: as §1, §2, §3, §4, §5, §6, §7

[4] = target: T4, TYK2 (Homo sapiens, UniProt P29597); test: Kinobeads assay with immunodetection, TYK2; details: for IC50: Kinobeads assay, mixed Molt4/Ramos lysate, read-out: Inhibition values (IC50) Tyk2
T4 construct: endogenous in cells; host or cells: Molt4 (ATCC CRL-1582) and Ramos (ATCC CRL-1596) cells; mixed lysate 1:2
T4 sequence (P29597 whole entry): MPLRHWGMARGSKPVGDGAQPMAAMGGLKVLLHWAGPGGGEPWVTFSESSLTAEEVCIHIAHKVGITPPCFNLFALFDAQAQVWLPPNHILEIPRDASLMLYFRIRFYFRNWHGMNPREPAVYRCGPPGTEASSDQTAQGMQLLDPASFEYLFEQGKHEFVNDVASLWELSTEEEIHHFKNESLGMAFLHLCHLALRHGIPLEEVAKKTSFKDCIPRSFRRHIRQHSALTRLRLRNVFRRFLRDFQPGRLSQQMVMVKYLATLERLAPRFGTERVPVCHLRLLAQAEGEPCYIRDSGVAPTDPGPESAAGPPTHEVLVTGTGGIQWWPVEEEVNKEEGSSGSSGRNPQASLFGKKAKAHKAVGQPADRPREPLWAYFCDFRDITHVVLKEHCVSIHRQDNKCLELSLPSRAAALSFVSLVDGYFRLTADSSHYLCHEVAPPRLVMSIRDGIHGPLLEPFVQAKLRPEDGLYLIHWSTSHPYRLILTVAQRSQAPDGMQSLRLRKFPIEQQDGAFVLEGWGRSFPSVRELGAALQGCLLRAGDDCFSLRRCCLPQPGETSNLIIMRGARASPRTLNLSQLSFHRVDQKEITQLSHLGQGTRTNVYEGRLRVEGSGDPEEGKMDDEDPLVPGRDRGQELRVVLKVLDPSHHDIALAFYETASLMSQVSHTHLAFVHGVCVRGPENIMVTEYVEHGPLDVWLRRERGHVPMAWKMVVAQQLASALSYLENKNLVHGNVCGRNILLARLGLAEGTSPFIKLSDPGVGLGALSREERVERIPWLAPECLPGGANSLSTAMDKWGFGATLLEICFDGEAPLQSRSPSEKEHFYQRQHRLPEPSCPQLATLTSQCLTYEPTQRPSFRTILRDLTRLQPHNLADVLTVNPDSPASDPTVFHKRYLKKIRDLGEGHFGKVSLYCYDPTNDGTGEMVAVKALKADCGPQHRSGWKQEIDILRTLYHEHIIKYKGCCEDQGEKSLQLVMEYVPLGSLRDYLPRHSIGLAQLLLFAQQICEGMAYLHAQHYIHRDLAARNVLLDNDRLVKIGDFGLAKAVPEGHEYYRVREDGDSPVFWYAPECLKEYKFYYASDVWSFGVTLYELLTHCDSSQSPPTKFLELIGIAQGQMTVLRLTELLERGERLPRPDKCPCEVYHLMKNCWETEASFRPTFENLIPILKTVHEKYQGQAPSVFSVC
Protocol: as §1, §2, §3, §4, §5, §6, §7

T1 sequence (P23458 whole entry): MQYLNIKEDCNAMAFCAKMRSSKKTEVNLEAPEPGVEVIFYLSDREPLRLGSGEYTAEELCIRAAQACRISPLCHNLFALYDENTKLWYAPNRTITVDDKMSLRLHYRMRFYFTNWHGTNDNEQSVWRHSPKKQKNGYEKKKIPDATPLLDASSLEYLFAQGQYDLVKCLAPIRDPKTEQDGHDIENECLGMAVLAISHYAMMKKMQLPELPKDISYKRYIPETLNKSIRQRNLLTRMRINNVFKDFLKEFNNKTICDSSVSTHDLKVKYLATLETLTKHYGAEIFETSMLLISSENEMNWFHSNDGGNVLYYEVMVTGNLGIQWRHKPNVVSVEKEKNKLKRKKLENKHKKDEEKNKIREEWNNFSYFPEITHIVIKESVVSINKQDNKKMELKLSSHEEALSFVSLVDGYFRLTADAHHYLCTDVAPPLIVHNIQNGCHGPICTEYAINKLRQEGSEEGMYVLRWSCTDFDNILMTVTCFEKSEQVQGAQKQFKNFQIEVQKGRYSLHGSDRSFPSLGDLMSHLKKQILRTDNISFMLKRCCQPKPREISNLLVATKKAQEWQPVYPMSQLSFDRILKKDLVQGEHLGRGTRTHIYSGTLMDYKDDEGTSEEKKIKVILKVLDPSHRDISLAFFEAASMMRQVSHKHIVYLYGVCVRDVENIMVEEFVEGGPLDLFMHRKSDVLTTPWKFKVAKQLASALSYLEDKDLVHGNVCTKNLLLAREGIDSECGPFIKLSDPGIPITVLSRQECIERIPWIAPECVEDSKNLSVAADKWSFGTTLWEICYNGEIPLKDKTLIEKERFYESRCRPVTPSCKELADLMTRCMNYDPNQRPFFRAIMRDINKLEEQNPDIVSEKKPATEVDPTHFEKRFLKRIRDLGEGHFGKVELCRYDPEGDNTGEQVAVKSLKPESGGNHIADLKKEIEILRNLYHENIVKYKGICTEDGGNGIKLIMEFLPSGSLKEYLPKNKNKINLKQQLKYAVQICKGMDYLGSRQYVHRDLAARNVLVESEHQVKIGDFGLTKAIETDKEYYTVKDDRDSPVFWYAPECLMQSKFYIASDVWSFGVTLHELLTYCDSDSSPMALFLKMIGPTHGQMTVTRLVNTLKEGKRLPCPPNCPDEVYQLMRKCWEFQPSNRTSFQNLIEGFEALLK

IC50 [1] [µM]	IC50 [2] [µM]	IC50 [3] [µM]	IC50 [4] [µM]	Selectivity ratio over JAK2, JAK1 [1]	Selectivity ratio over JAK2, Tyk2 ([4]; Tyk2 over JAK2)	Selectivity ratio over JAK2, JAK3 ([3]; JAK3 over JAK2)	SMILES
1 to 10	> 10	1 to 10	1 to 10				C=CC(=O)N1CCC[C@H]1CNc1nc(Nc2cnn(C)c2)ncc1Cl [Example 10, (S)-1-(2-(((5-chloro-2-((1-methyl-1H-pyrazol-4-yl)amino)pyrimidin-4-yl)amino)methyl)pyrrolidin-1-yl)prop-2-en-1-one]
0.1 to 1	> 10	1 to 10	0.1 to 1				C=CC(=O)N1CCC[C@H]1CNc1nc(Nc2cnn(CCO)c2)ncc1Cl [Example 11, (S)-1-(2-(((5-chloro-2-((1-(2-hydroxyethyl)-1H-pyrazol-4-yl)amino)pyrimidin-4-yl)amino)methyl)pyrrolidin-1-yl)prop-2-en-1-one]
0.1 to 1	1 to 10	< 0.1	< 0.1		Tyk2 = 14		C=CS(=O)(=O)N1CCC[C@H]1CNc1nc(Nc2cnn(C)c2)ncc1Cl [Example 14, (S)-5-chloro-N^2-(1-methyl-1H-pyrazol-4-yl)-N^4-((1-(vinylsulfonyl)pyrrolidin-2-yl)methyl)pyrimidine-2,4-diamine]
0.1 to 1	1 to 10	< 0.1	0.1 to 1			JAK3 = 610	C=CC(=O)N1CC[C@H](CNc2nc(Nc3cnn(C)c3)ncc2Cl)C1 [Example 22, (R)-1-(3-(((5-chloro-2-((1-methyl-1H-pyrazol-4-yl)amino)pyrimidin-4-yl)amino)methyl)pyrrolidin-1-yl)prop-2-en-1-one]

Continued, compound first:

SMILES	IC50 [1] [µM]	IC50 [2] [µM]	IC50 [3] [µM]	IC50 [4] [µM]	Selectivity ratio over JAK2, JAK1 [1]	Selectivity ratio over JAK2, Tyk2 ([4]; Tyk2 over JAK2)	Selectivity ratio over JAK2, JAK3 ([3]; JAK3 over JAK2)
Cn1cc(Nc2ncc(Cl)c(NC[C@@H]3CCCN3S(C)(=O)=O)n2)cn1 [Example 12, (S)-5-chloro-N^2-(1-methyl-1H-pyrazol-4-yl)-N^4-((1-(methylsulfonyl)pyrrolidin-2-yl)methyl)pyrimidine-2,4-diamine]	< 0.1	0.1 to 1	< 0.1	< 0.1	JAK1 = 12		
CS(=O)(=O)N1CCC[C@H]1CNc1nc(Nc2cnn(CCO)c2)ncc1Cl [Example 13, (S)-2-(4-((5-chloro-4-(((1-(methylsulfonyl)pyrrolidin-2-yl)methyl)amino)pyrimidin-2-yl)amino)-1H-pyrazol-1-yl)ethanol]	< 0.1	0.1 to 1	< 0.1	< 0.1	JAK1 = 13		
C=CS(=O)(=O)N1CCC[C@H]1CNc1nc(Nc2cnn(CCO)c2)ncc1Cl [Example 15, (S)-2-(4-((5-chloro-4-(((1-(vinylsulfonyl)pyrrolidin-2-yl)methyl)amino)pyrimidin-2-yl)amino)-1H-pyrazol-1-yl)ethanol]	< 0.1	0.1 to 1	< 0.1	< 0.1	JAK1 = 13		
CC(=O)N1CC(CNc2nc(Nc3cnn(C)c3)ncc2Cl)C1 [Example 16, 1-(3-(((5-chloro-2-((1-methyl-1H-pyrazol-4-yl)amino)pyrimidin-4-yl)amino)methyl)azetidin-1-yl)ethanone]	> 10	> 10	> 10	> 10			
CC(=O)N1CC(CNc2nc(Nc3cnn(CCO)c3)ncc2Cl)C1 [Example 17, 1-(3-(((5-chloro-2-((1-(2-hydroxyethyl)-1H-pyrazol-4-yl)amino)pyrimidin-4-yl)amino)methyl)azetidin-1-yl)ethanone]	1 to 10	> 10	1 to 10	1 to 10			
Cn1cc(Nc2ncc(Cl)c(NCC3CN(S(C)(=O)=O)C3)n2)cn1 [Example 18, 5-chloro-N^2-(1-methyl-1H-pyrazol-4-yl)-N^4-((1-(methylsulfonyl)azetidin-3-yl)methyl)pyrimidine-2,4-diamine]	> 10	> 10	> 10	> 10			
CS(=O)(=O)N1CC(CNc2nc(Nc3cnn(CCO)c3)ncc2Cl)C1 [Example 19, 2-(4-((5-chloro-4-(((1-(methylsulfonyl)azetidin-3-yl)methyl)amino)pyrimidin-2-yl)amino)-1H-pyrazol-1-yl)ethanol]	0.1 to 1	1 to 10	< 0.1	0.1 to 1			
CC(=O)N1CC[C@H](CNc2nc(Nc3cnn(C)c3)ncc2Cl)C1 [Example 20, (R)-1-(3-(((5-chloro-2-((1-methyl-1H-pyrazol-4-yl)amino)pyrimidin-4-yl)amino)methyl)pyrrolidin-1-yl)ethanone]	0.1 to 1	1 to 10	1 to 10	0.1 to 1	JAK1 = 42		
CC(=O)N1CC[C@H](CNc2nc(Nc3cnn(CCO)c3)ncc2Cl)C1 [Example 21, (R)-1-(3-(((5-chloro-2-((1-(2-hydroxyethyl)-1H-pyrazol-4-yl)amino)pyrimidin-4-yl)amino)methyl)pyrrolidin-1-yl)ethanone]	< 0.1	1 to 10	0.1 to 1	< 0.1	JAK1 = 78		
